Assay results as given in patent publication US11596639B2, “Substituted indole Mcl-1 inhibitors” (Vanderbilt University, priority 2016, dated 2023).
Where two headings read alike, the source gives them in different places.

Tests used:
[1] = system: H929 human cancer cell lines; assay: Cellular viability / proliferation (Cell TiterGlo, 72 h); assay type: cell-based
Method in brief: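 Plating is at 1,000 cells/well in 10% FBS medium; after 24 h, compound is added as a 2-fold series starting at 50 μM with under 1% DMSO.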

Mcl-1 = Mcl-1 (Homo sapiens (Human), UniProt Q07820); assay: Fluorescence polarization anisotropy (FPA) competition assay, FITC-Bak or FITC-Bim BH3 peptide; assay type: binding; conditions: read-out: Ki for Inhibition of Mcl-1 by FPA assay
[2] = Homo sapiens, NCI-H929, 72 h, read-out: GI50 on cellular proliferation of H929 human cancer cell lines, H929 cells, 72 h, Cell TiterGlo, 10% FBS
[3] = H929 cells, 72 h, Cell TiterGlo, 10% FBS, read-out: GI50 on cellular proliferation of H929 human cancer cell lines

Chain of Mcl-1 (Q07820 172-327): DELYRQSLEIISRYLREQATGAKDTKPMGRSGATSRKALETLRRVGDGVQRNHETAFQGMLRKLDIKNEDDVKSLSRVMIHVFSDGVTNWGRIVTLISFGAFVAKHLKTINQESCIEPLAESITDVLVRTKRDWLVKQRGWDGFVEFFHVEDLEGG

SMILES	GI50 [1, 2]	Ki (Mcl-1)	GI50 [1, 3]	GI50 ([1]; read-out: GI50 on cellular proliferation of H929 human cancer cell lines, H929 cells, 72 h, Cell TiterGlo, 10% FBS)
Cc1cc(OCCCc2c3n(c4c(-c5c(C)nn(C)c5C)c(Cl)ccc24)[C@H](C)CN(c2ccc4c(C(=O)O)cn(C)c4c2)C3=O)cc(C)c1Cl [Example 79, (R)-6-(7-Chloro-10-(3-(4-chloro-3,5-dimethylphenoxy)propyl)-4-methyl-1-oxo-6-(1,3,5-trimethyl-1H-pyrazol-4-yl)-3,4-dihydropyrazino[1,2-a]indol-2(1H)-yl)-1-methyl-1H-indole-3-carboxylic acid]	1500 nM	< 1 nM	–	–
Cc1cc(OCCCc2c3n(c4c(-c5c(C)ncnc5C)c(C)ccc24)[C@H](C)CN(c2cccc4cc(C(=O)O)n(Cc5ccccn5)c24)C3=O)cc(C)c1Cl (atropisomer, axis not shown) [Example 271, (R)-7-(10-(3-(4-chloro-3,5-dimethylphenoxy)propyl)-6-(4,6-dimethylpyrimidin-5-yl)-4,7-dimethyl-1-oxo-3,4-dihydropyrazino[1,2-a]indol-2(1H)-yl)-1-(pyridin-2-ylmethyl)-1H-indole-2-carboxylic acid]	260 nM	< 1 nM	–	–
Cc1cc(OCCCc2c3n(c4c(-c5c(C)nn(C)c5C)c(Cl)ccc24)[C@H](C)CN(c2cc(OCc4ccccc4)cc4cc(C(=O)O)n(C)c24)C3=O)cc(C)c1Cl [Example 345, (P, R)-5-(Benzyloxy)-7-(7-chloro-10-(3-(4-chloro-3,5-dimethylphenoxy)propyl)-4-methyl-1-oxo-6-(1,3,5-trimethyl-1H-pyrazol-4-yl)-3,4-dihydropyrazino[1,2-a]indol-2(1H)-yl)-1-methyl-1H-indole-2-carboxylic acid]	–	3.5 nM	1800 nM	–
Cc1cc(OCCCc2c3n(c4c(-c5c(C)nn(C)c5C)c(Cl)ccc24)[C@H](C)CN(c2cc(O)cc4c2cc(C(=O)O)n4C)C3=O)cc(C)c1Cl [Example 305, (M, R)-4-(7-chloro-10-(3-(4-chloro-3,5-dimethylphenoxy)propyl)-4-methyl-1-oxo-6-(1,3,5-trimethyl-1H-pyrazol-4-yl)-3,4-dihydropyrazino[1,2-a]indol-2(1H)-yl)-6-hydroxy-1-methyl-1H-indole-2-carboxylic acid]	–	< 1 nM	6200 nM	–
Cc1cc(OCCCc2c3n(c4c(-c5c(C)nn(C)c5C)c(Cl)ccc24)[C@H](C)CN(c2ccc(C(=O)O)c4c2ccn4C)C3=O)cc(C)c1Cl [Example 51, (R)-4-(7-chloro-10-(3-(4-chloro-3,5-dimethylphenoxy)propyl)-4-methyl-1-oxo-6-(1,3,5-trimethyl-1H-pyrazol-4-yl)-3,4-dihydropyrazino[1,2-a]indol-2(1H)-yl)-1-methyl-1H-indole-7-carboxylic acid]	1500 nM	< 1 nM	–	–
Cc1cc(OCCCc2c3n(c4c(-c5c(C)nn(C)c5C)c(Cl)ccc24)[C@H](C)CN(c2ccnc4c2cc(C(=O)O)n4C)C3=O)cc(C)c1Cl [Example 169, (R)-4-(7-chloro-10-(3-(4-chloro-3,5-dimethylphenoxy)propyl)-4-methyl-1-oxo-6-(1,3,5-trimethyl-1H-pyrazol-4-yl)-3,4-dihydropyrazino[1,2-a]indol-2(1H)-yl)-1-methyl-1H-pyrrolo[2,3-b]pyridine-2-carboxylic acid]	2600 nM	< 1 nM	–	–
Cc1cc(OCCCc2c3n(c4c(-c5c(C)nn(C)c5C)c(Cl)ccc24)[C@H](C)CN(c2cn(C)c4ccc(-c5ncn(CC(C)C)n5)cc24)C3=O)cc(C)c1Cl [Example 454, (R)-7-Chloro-10-(3-(4-chloro-3,5-dimethylphenoxy)propyl)-2-(5-(1-isobutyl-1H-1,2,4-triazol-3-yl)-1-methyl-1H-indol-3-yl)-4-methyl-6-(1,3,5-trimethyl-1H-pyrazol-4-yl)-3,4-dihydropyrazino[1,2-a]indol-1(2H)-one]	2100 nM	3.5 nM	–	–
Cc1cc(OCCCc2c3n(c4c(-c5c(C)nn(C)c5C)c(Cl)ccc24)[C@H](C)CN(c2cc(OCC4CCN(C)C4)cc4c2cc(C(=O)O)n4C)C3=O)cc(C)c1Cl (stereo partly shown) [Example 331, 4-((M, R)-7-Chloro-10-(3-(4-chloro-3,5-dimethylphenoxy)propyl)-4-methyl-1-oxo-6-(1,3,5-trimethyl-1H-pyrazol-4-yl)-3,4-dihydropyrazino[1,2-a]indol-2(1H)-yl)-1-methyl-6-((1-methylpyrrolidin-3-yl)methoxy)-1H-indole-2-carboxylic acid]	–	1.1 nM	2300 nM	–
Cc1cc(N2C[C@@H](C)n3c(c(CCCOc4cc(C)c(Cl)c(C)c4)c4ccc(Cl)c(-c5c(C)ncnc5C)c43)C2=O)c2c(c1)cc(C(=O)O)n2Cc1ccccn1 [Example 296, 7-[(4R)-7-chloro-10-[3-(4-chloro-3,5-dimethyl-phenoxy)propyl]-6-(4,6-dimethylpyrimidin-5-yl)-4-methyl-1-oxo-3,4-dihydropyrazino[1,2-a]indol-2-yl]-5-methyl-1-(2-pyridylmethyl)indole-2-carboxylic acid]	240 nM	< 1 nM	–	–
CC[C@@H]1Cn2c(c(CCCOc3cc(C)c(Cl)c(C)c3)c3ccc(Cl)c(-c4c(C)nn(C)c4C)c32)C(=O)N1c1cc(C(=O)O)c2c(ccn2C)c1 [Example 41, (R)-5-(7-chloro-10-(3-(4-chloro-3,5-dimethylphenoxy)propyl)-3-ethyl-1-oxo-6-(1,3,5-trimethyl-1H-pyrazol-4-yl)-3,4-dihydropyrazino[1,2-a]indol-2(1H)-yl)-1-methyl-1H-indole-7-carboxylic acid]	1200 nM	1.8 nM	–	–
Cc1cc(OCCCc2c3n(c4c(-c5c(C)nn(C)c5C)c(Cl)ccc24)[C@H](C)CN(c2cccc4ccn(C)c24)C3=O)cc(C)c1Cl [Example 234, (R)-7-Chloro-10-(3-(4-chloro-3,5-dimethylphenoxy)propyl)-4-methyl-2-(1-methyl-1H-indol-7-yl)-6-(1,3,5-trimethyl-1H-pyrazol-4-yl)-3,4-dihydropyrazino[1,2-a]indol-1(2H)-one]	1600 nM	< 1 nM	–	–
Cc1cc(OCCCc2c3n(c4c(-c5c(C)nn(C)c5C)c(Cl)ccc24)[C@H](C)CN(c2nn(C)c4cccc(C(=O)O)c24)C3=O)cc(C)c1Cl [Example 179, (R)-3-(7-Chloro-10-(3-(4-chloro-3,5-dimethylphenoxy)propyl)-4-methyl-1-oxo-6-(1,3,5-trimethyl-1H-pyrazol-4-yl)-3,4-dihydropyrazino[1,2-a]indol-2(1H)-yl)-1-methyl-1H-indazole-4-carboxylic acid]	–	< 1 nM	–	4700 nM
Cc1cc(OCCCc2c3n(c4c(-c5c(C)nn(C)c5C)c(Cl)ccc24)[C@H](C)CN(c2cc(OC(F)(F)F)cc4cc(C(=O)O)[nH]c24)C3=O)cc(C)c1Cl [Example 469, (R)-7-(7-Chloro-10-(3-(4-chloro-3,5-dimethylphenoxy)propyl)-4-methyl-1-oxo-6-(1,3,5-trimethyl-1H-pyrazol-4-yl)-3,4-dihydropyrazino[1,2-a]indol-2(1H)-yl)-5-(trifluoromethoxy)-1H-indole-2-carboxylic acid]	3300 nM	2.2 nM	–	–
Cc1cc(OCCCc2c3n(c4c(-c5c(C)nn(C)c5C)c(Cl)ccc24)[C@H](C)CN(c2cn(C)c4ccc(C(N)=O)cc24)C3=O)cc(C)c1Cl [Example 221, 3-[(4R)-7-chloro-10-[3-(4-chloro-3,5-dimethyl-phenoxy)propyl]-4-methyl-1-oxo-6-(1,3,5-trimethylpyrazol-4-yl)-3,4-dihydropyrazino[1,2-a]indol-2-yl]-1-methyl-indole-5-carboxamide]	450 nM	2.5 nM	–	–
